Measured values reported in paper PMC10449633 (Nature Chemical Biology, 2023).
Several values for one entry are separate records, joined by “and”; a condition that tells them apart may be missing. Identical values can stand only once. Like-named read-outs stand apart in the source and are kept apart here. Numbered stars: 1 amine (or outer) side, 2 acyl side, 3 side chain; on linkers, the order of the positions; unused ones are H or OH. Square brackets hold non-standard residues; d marks the D form. Peptide text beside a SMILES is read from it. ξ: configuration not given here. X1 = CN(C(Cc1cn(Cc2ccc(Br)cc2)c2ccccc12)C(=O)[*:2])[*:1]; ξAla(CF3) = NC(CC(F)(F)F)C(=O)O; X2 = N#CCCC(O[*:1])C(=O)[*:2]; NMeL = CN[CH](CC(C)C)C(=O)O; NMeA = CN[CH](C)C(=O)O

Key:
[1] = biological target: T1, WT Sec61α (Canis lupus familiaris, UniProt P38377); assay: GLuc secretion reporter fused to full-length IL-2 or TNF, cells stably expressing WT Sec61α; assay type: cell-based, canine; conditions: for Sec61 WT - Hu IL2(FL) / Sec61 WT - Hu PD1(ss) / Sec61 WT - Hu TNFa(FL): replicate columns
T1 construct: expressed in transfected cells
T1 sequence (P60468 whole entry, the tested form may be a part): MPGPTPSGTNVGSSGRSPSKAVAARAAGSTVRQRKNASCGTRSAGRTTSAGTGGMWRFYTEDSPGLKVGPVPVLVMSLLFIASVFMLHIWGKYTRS
T1 sequence (P38377 whole entry, the tested form may be a part): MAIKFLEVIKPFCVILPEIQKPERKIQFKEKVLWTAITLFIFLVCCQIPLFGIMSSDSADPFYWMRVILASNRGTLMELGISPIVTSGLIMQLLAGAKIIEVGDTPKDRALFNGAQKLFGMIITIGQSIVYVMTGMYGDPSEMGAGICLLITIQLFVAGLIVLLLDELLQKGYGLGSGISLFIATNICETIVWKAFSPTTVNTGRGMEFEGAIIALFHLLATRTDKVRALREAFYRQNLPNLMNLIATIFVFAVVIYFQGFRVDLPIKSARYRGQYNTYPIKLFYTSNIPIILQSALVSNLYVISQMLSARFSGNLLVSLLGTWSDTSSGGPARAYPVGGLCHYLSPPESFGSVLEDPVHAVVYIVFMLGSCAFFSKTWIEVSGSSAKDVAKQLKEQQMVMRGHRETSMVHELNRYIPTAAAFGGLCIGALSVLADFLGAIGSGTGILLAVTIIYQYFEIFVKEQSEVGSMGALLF
T1 sequence (P60059 whole entry, further chain, the tested form may be a part): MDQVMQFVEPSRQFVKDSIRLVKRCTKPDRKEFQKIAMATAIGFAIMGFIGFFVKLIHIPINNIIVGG

[2] = biological target: Sec61α N300M (Canis lupus familiaris, UniProt P38377, N300M); assay: Luciferase reporter assay in HEK293 cells expressing Sec61α N300M; conditions: HEK293, 24 h, read-out: luciferase reporter activity (% of no-drug control), N300M
Sequence of Sec61α N300M (P38377 whole entry N300M): as the sequence (P38377 whole entry, the tested form may be a part) above, with N300M counted along it
Sequence of Sec61α N300M (P60468 whole entry, further chain): as the sequence (P60468 whole entry, the tested form may be a part) above
Sequence of Sec61α N300M (P60059 whole entry, further chain): as the sequence (P60059 whole entry, further chain, the tested form may be a part) above
Method: (§1) Data are mean values ± s.d. from n = 2 independent experiments.
(§2) HEK293T cells (0.3 × 10^6) were seeded per well of a six-well plate and incubated at 37 °C in 5% CO2 for 24 h to adhere. Each of the two wells was transfected with 1 µg of plasmid encoding a luciferase with the signal peptide of either VCAM1 or pPL using PEI in a 5:1 ratio, after which cells were returned to the incubator for a further 24 h. Transfected cells were then resuspended following trypsinization, cell count estimated using a TC20 Automated Cell Counter (BioRad) and diluted to seed a 96-well flat-bottom plate with 1.6 × 10^4 cells per well. […] Cells were then incubated for a further 24 h, after which the luciferase-containing media were transferred to a clean 96-well plate and stored at −20 °C. Luciferase activity of the media was estimated using a Gaussia-GLOW Juice Luciferase Assay kit from PJK Biotech GmbH as per the manufacturer’s instructions. Luminescence was measured using an EnSpire Multimode plate reader (PerkinElmer). Background luminescence from media placed in a well with neither cells nor drug was subtracted from all values, and measurements were calculated as a percentage of luminescence intensity of a well expressing the appropriate luciferase construct in the absence of any drug. Curves were fitted, and IC50 values were calculated using GraphPad Prism 8.
HEK293 Flp-In T-REx cells (Thermo Fisher Scientific, R78007) were cultured in Dulbecco’s modified Eagle’s medium (Gibco) supplemented with 10% FBS (Gibco) at 37 °C in a humidified 5% CO2 atmosphere. Approximately 0.3 µg of pOG44 and 1 µg of targeting construct plasmids were mixed in 250 µl of OptiMEM (Thermo Fisher Scientific, 51985-026). A total of 3 µl (3 µg) Lipofectamine3000 transfection reagent was then added to the DNA mix and incubated at room temperature for 20 min, and the whole mixture was added to the cells. Cells were exposed to 100 µg ml^−^1 hygromycin B (Invitrogen) and 10 µg ml^−^1 blasticidin for 3–4 weeks until the appearance of resistant colonies. Colonies were expanded into T75 flasks and induced with doxycycline (Sigma-Aldrich, D9891) at a concentration of 1–5 µg ml^−^1 for 48 h. Cells were collected, and total RNA was extracted followed by cDNA amplification and sequencing of Sec61 with gene-specific PCR primers to confirm. Cells were then used for the luciferase reporter assays as above.
(§3) Data are mean values ± SD and are representative of n = 2 independent experiments.

[3] = test system: SARS-CoV-2; assay type: cell-based; conditions: 48 h
[4] = biological target: Sec61α Q127A (Canis lupus familiaris, UniProt P38377, Q127A); assay: Luciferase reporter assay in HEK293 cells expressing Sec61α Q127A; design: remaining activity: dose or concentration left out as unconfirmed; conditions: HEK293, 24 h, read-out: luciferase reporter activity (% of no-drug control), Q127A
Sequence of Sec61α Q127A (P60059 whole entry): as the sequence (P60059 whole entry, further chain, the tested form may be a part) above
Sequence of Sec61α Q127A (P60468 whole entry, further chain): as the sequence (P60468 whole entry, the tested form may be a part) above
Sequence of Sec61α Q127A (P38377 whole entry Q127A): as the sequence (P38377 whole entry, the tested form may be a part) above, with Q127A counted along it
Method: as §1, §2
WT canine Sec61 was cloned into pcDNA5/FRT/TO (Thermo Fisher Scientific), and point mutations were generated using PCR. All mutants were sequence verified. HEK293 Flp-In T-REx cells (Thermo Fisher Scientific, R78007) were cultured in Dulbecco’s modified Eagle’s medium (Gibco) supplemented with 10% FBS (Gibco) at 37 °C in a humidified 5% CO2 atmosphere. Approximately 0.3 µg of pOG44 and 1 µg of targeting construct plasmids were mixed in 250 µl of OptiMEM (Thermo Fisher Scientific, 51985-026). A total of 3 µl (3 µg) Lipofectamine3000 transfection reagent was then added to the DNA mix and incubated at room temperature for 20 min, and the whole mixture was added to the cells. Cells were exposed to 100 µg ml^−^1 hygromycin B (Invitrogen) and 10 µg ml^−^1 blasticidin for 3–4 weeks until the appearance of resistant colonies. Colonies were expanded into T75 flasks and induced with doxycycline (Sigma-Aldrich, D9891) at a concentration of 1–5 µg ml^−^1 for 48 h. Cells were collected, and total RNA was extracted followed by cDNA amplification and sequencing of Sec61 with gene-specific PCR primers to confirm. Cells were then used for the luciferase reporter assays as above.
as §3

[5] = test system: mouse splenocytes; assay: Cytokine secretion assay, stimulated mouse splenocytes (MSD U-PLEX); assay type: cell-based; conditions: 24 h, tested 0.025–25,000 nM

CC(C)CC1NC(=O)C(Cc2cn(Cc3ccc(Br)cc3)c3ccccc23)N(C)C(=O)C(CC(F)(F)F)NC(=O)C(CC(C)C)N(C)C(=O)C(CC(F)(F)F)NC(=O)C(CCC#N)OC(=O)C(C)N(C)C1=O (stereo not shown) [KZR-8445] (cyclo([X1]L[NMeA][X2][ξAla(CF3)][NMeL][ξAla(CF3)]); configuration not given here)
Sec61 WT - Hu IL2(FL) ([1]; 8 nM): 105 and 102 and 116 | Sec61 WT - Hu PD1(ss) ([1]; 8 nM): 91 and 108 and 92 | Sec61 WT - Hu TNFa(FL) ([1]; 8 nM): 123 and 114 and 93 | Sec61 WT - Hu IL2(FL) ([1]; 40 nM): 89 and 83 and 75 | Sec61 WT - Hu PD1(ss) ([1]; 40 nM): 62 and 54 and 56 | Sec61 WT - Hu TNFa(FL) ([1]; 40 nM): 81 and 75 and 70 | Sec61 WT - Hu IL2(FL) ([1]; 200 nM): 57 and 37 and 42 | Sec61 WT - Hu PD1(ss) ([1]; 200 nM): 18 (2×) and 19 | Sec61 WT - Hu TNFa(FL) ([1]; 200 nM): 36 and 30 and 29 | Sec61 WT - Hu IL2(FL) ([1]; 1000 nM): 7 and 6 (2×) | Sec61 WT - Hu PD1(ss) ([1]; 1000 nM): 2 | Sec61 WT - Hu TNFa(FL) ([1]; 1000 nM): 3 (2×) and 2 | Sec61 WT - Hu IL2(FL) ([1]; 5000 nM): 1 and 0 (2×) | Sec61 WT - Hu PD1(ss) ([1]; 5000 nM): 0 | Sec61 WT - Hu TNFa(FL) ([1]; 5000 nM): 1 and 0 (2×) | Sec61 WT - Hu IL2(FL) ([1]; 25000 nM): 0 | Sec61 WT - Hu PD1(ss) ([1]; 25000 nM): 0 (2×) and -1 | Sec61 WT - Hu TNFa(FL) ([1]; 25000 nM): 1 and 0 (2×) | IC50 ([1]; 24 h, doxycycline-induced): ~100 nM | remaining activity at 0.00018303 µM ([2]; Drug nM (log10) 0.18303): 96.7% | remaining activity at 0.000660151 µM ([2]; Drug nM (log10) 0.660151): 105% | remaining activity ([2]; Drug nM (log10) 1.61439): 76.6% | remaining activity ([2]; Drug nM (log10) 2.09151): 74% | remaining activity ([2]; Drug nM (log10) 3.04576): 68% | remaining activity at 0.000508 µM ([2]; Drug nM (log10) -0.29409): 92.5% | viral genome copy number ([3]; 0.01 uM): 25500000 and 22400000 and 23500000 | viral genome copy number ([3]; 0.04 uM): 23500000 and 23900000 and 21400000 | viral genome copy number ([3]; 0.12 uM): 29500000 and 28600000 and 23600000 | viral genome copy number ([3]; 0.37 uM): 48700000 and 30700000 and 26200000 | viral genome copy number ([3]; 1.11 uM): 22100000 and 25700000 and 28600000 | viral genome copy number ([3]; 3.33 uM): 11600000 and 10500000 and 12800000 | viral genome copy number ([3]; 10 uM): 8080000 and 9090000 and 8060000 | remaining activity at 0.00018303 µM ([4]; Drug nM (log10) 0.18303): 76.3% | remaining activity at 0.000660151 µM ([4]; Drug nM (log10) 0.660151): 76.5% | remaining activity at 0.00113727 µM ([4]; Drug nM (log10) 1.13727): 51.2% | remaining activity ([4]; Drug nM (log10) 1.61439): 32.3% | remaining activity ([4]; Drug nM (log10) 2.09151): 14.7% | remaining activity ([4]; Drug nM (log10) 2.56864): 6.52% | remaining activity ([4]; Drug nM (log10) 3.04576): 3.21% | remaining activity ([4]; Drug nM (log10) 3.52288): 2.56% | remaining activity at 0.004 µM ([4]; Drug nM (log10) 4): 2.87% | remaining activity at 0.000508 µM ([4]; Drug nM (log10) -0.29409): 88.9% | IC50 ([5]; LPS-stimulation, read-out: IC50, IL-6 secretion): 150 nM | IC50 ([5]; Mus musculus, Splenocyte, LPS-stimulation, read-out: IC50, IL-1β secretion): > 25000 nM | IC50 ([5]; Mus musculus, Splenocyte, LPS-stimulation, read-out: IC50, IL-6 secretion): 114 nM | IC50 ([5]; Mus musculus, Splenocyte, LPS-stimulation, read-out: IC50, IL-23 secretion): 206 nM | IC50 ([5]; Mus musculus, Splenocyte, anti-CD3/CD28-stimulation, read-out: IC50, GM-CSF secretion): 31.2 nM | IC50 ([5]; Mus musculus, Splenocyte, anti-CD3/CD28-stimulation, read-out: IC50, IFNγ secretion): 59.6 nM | IC50 ([5]; Mus musculus, Splenocyte, anti-CD3/CD28-stimulation, read-out: IC50, TNFα secretion): 103 nM | IC50 ([5]; anti-CD3/CD28-stimulation, read-out: IC50, GM-CSF secretion): 39.5 nM | IC50 ([5]; anti-CD3/CD28-stimulation, read-out: IC50, IFNγ secretion): 32 nM | IC50 ([5]; anti-CD3/CD28-stimulation, read-out: IC50, TNFα secretion): 84.7 nM
